Values quoted from earlier work as cited in publication PMC6929995, “Rod-shape theranostic nanoparticles facilitate antiretroviral drug biodistribution and activity in human immunodeficiency virus susceptible cells and tissues” (Theranostics, 2020).

System: HIV-1

For `Cc1cc(/C=C/C#N)cc(C)c1Nc1ccnc(Nc2ccc(C#N)cc2)n1` [RPV, rilpivirine], the potency is listed as “sub-nanomolar range”.
